Paper PMC5658359, “A potent small-molecule inhibitor of the DCN1-UBC12 interaction that selectively blocks cullin 3 neddylation” (Nature Communications, 2017)
“Also recorded” adds a separate entry of the source.

How the values were obtained:
NEDD8 E1 (APP-BP1/Uba3) = molecular target: T1, NEDD8 E1 (APP-BP1/Uba3) (Homo sapiens, UniProt Q8TBC4); assay: In vitro UBC12~NEDD8 thioester forming assay; format: biochemical; settings: DI-591 at concentrations up to 100 µM
T1 construct: purchased Boston Biochem
T1 sequence (Q8TBC4 1-463): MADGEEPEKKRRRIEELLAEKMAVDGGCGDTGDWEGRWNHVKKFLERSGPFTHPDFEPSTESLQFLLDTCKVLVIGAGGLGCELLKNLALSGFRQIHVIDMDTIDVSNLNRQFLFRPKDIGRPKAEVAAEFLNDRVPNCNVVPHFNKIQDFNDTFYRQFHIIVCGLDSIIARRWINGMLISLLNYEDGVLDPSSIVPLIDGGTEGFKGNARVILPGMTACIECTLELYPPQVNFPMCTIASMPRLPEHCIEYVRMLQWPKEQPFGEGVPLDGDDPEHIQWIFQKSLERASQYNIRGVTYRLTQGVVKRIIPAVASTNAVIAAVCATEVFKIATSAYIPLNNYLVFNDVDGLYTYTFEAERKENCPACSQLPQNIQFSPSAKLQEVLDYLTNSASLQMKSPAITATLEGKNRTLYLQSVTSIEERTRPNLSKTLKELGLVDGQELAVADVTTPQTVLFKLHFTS
T1 sequence (Q13564 1-534 partner): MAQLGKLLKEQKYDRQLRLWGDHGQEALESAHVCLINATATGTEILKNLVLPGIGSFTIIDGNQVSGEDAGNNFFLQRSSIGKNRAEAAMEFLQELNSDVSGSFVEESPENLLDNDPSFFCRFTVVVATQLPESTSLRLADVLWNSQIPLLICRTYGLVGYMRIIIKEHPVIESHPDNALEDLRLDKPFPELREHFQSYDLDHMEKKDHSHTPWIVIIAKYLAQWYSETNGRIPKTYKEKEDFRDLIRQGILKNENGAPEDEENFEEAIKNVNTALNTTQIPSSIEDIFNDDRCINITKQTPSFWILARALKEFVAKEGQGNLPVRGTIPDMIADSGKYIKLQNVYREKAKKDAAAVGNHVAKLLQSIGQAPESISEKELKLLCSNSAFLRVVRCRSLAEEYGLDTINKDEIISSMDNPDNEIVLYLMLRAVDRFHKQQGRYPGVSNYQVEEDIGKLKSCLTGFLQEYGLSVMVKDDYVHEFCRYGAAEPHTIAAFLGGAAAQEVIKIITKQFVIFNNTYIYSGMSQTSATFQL
Description: NEDD8, NEDD8 E1 (APP-BP1/Uba3) and UBC12 proteins were purchased from Boston Biochem. NEDD8 (10 μM), NEDD8 E1 (25 nM), and UBC12 (2 μM) were incubated in Tris-HCl (pH 7.4, 50 mM), MgCl2 (5 mM), DTT (0.5 mM) and BSA (0.1 mg/ml), with a tested compound at 25 °C for 10 min. Reactions were initiated by addition of 2 mM ATP (or distilled H2O) and ran for 5 min at 25 °C. 1 M DTT (or distilled H2O) was added to the reaction mixtures which were then kept on ice for 1 min followed by addition of SDS loading buffer (without DTT). The products were separated by SDS–PAGE, visualized by Coomassie stain and quantified by ImageLab (Bio-Rad).
1 Supplementa ry Figure 3:
3 Supplementary Figure 3. In vitro U BC12~N EDD8 thio ester forming assay.N EDD8,
4 NEDD8 E1 (APP -BP 1/Uba3) and UBC12 were purchased from Boston Biochem. 10μ M
5 NEDD8, 25nM N EDD8 E1,and 2μ M UBC12 were incubated in 50mM Tris-HCl (pH 7.4), 5mM
6 M gC l 2, 0.5mM DTT, and 0.1mg/ml BSA, with indicated compounds at 25℃ for 10min.
7 Reactions were initiated by addition o f 2mM ATP (or dH2O) and w ere run for 5min at 25℃ .
8 Reaction mixtures were t hen added with 1M DTT (or dH 2O) and kept on ice for 1min followed
9 by addition of SDS Loading buffer (without DTT). The products were s eparated b y SDS-PAGE,
10 visualized by Coomassie stain and quantified using an ImageLab imager ( Bio-Rad). […]

[1] = system: THLE2 cells and five additional cancer cell lines; assay: Cell viability, WST assay, panel of 6 cell lines; format: cell-based; settings: Homo sapiens, THLE-2; 6 different cell lines; read-out: IC50, inhibition of cell viability
THLE2 = assay: Cell viability, WST assay, THLE2; format: cell-based; settings: Homo sapiens, THLE-2, 96 h; THLE2, t = 4 d
Description: (§1) Supplementary Figure 8: 1
(§2) […] in a panel of 6 cell lines. (a) The indicated cell lines were treated with MLN4924, 4
(§3) Cell viability was determined with a WST assay. (b) The 5
(§4) was determined with a WST assay. 7

KYSE70 = assay: Cell viability, WST assay, KYSE70; format: cell-based; settings: Homo sapiens, KYSE-70, 96 h; KYSE70, t = 4 d
Description: as §1, §2, §3, §4

KYSE140 = assay: Cell viability, WST assay, KYSE140; format: cell-based; settings: Homo sapiens, KYSE-140, 96 h; KYSE140, t = 4 d
Description: as §1, §2, §3, §4

neddylation of cullin 3 = assay: Western blotting of neddylated and un-neddylated cullin 3 in cells; format: cell-based; settings: THLE2 liver cells, up to 24 h, MLN4924 0.3 µM
Excerpt: (§5) Treated cells were lysed by RIPA buffer supplemented with protease and phosphatase inhibitors. The expression level of indicated proteins was examined by immunoblotting analysis. GAPDH was used as the loading control.

[2] = system: neddylation of cullin 1 and other cullins; assay: Western blotting of neddylated and un-neddylated cullin 1 and other cullins in cells; format: cell-based
Excerpt: as §5

NRF2 = assay: Western blotting of NRF2 protein in cells; format: cell-based; settings: western blot, 24 h
Excerpt: as §5

p21, Bim, CDT1 = assay: Western blotting of cullin 1 and 4A CRL substrates in cells; format: cell-based; settings: western blot, 24 h
Excerpt: as §5

DCN2 = molecular target: T2, DCN2 (Homo sapiens, UniProt Q6PH85); assay: Competitive FP binding assay with probe 46, DCN2
T2 construct: DCN2 (residues 62–259), DCN3 (residues 86–304), DCN4 (residues 102–292) and DCN5 (residues 47–237); His6-TEV (N, cleaved yes); made in house; host or cells: Rosetta2 cells (E. coli)
Description: The FP competitive binding experiments were performed to determine the binding affinities of all synthesized DCN1 inhibitors. […] Serial dilutions of DCN1 or DCN2 protein were mixed with the probe (46) to a final volume of 200 μl in the assay buffer (100 mM phosphate buffer, pH = 6.5, with 0.02% Tween-20 and 2% DMSO). The final probe concentration was 5 nM in both DCN1 and DCN2 assays. Plates were incubated at room temperature for 30 min with gentle shaking for equilibrium.
The IC50 and Ki values of compounds were determined in competitive binding experiments. Mixtures of compounds in DMSO (4 μl) and of pre-incubated protein/probe complex solution (196 μl) in the assay buffer were added into assay plates that were incubated at room temperature for 30 min with gentle shaking. Final concentrations of DCN1 protein and fluorescent probe (46) were 50 and 5 nM, respectively. […] FP values were measured as described above. IC50 values were determined by nonlinear regression fitting of the competition curves using the dose response inhibition equation (four parameters, variable slopes) included in the Prism/GraphPad software. K i values were calculated using the methods described earlier.

DCN3 = molecular target: T3, DCN3 (Homo sapiens, UniProt Q8IWE4); assay: Biochemical assays, binding of 47 to recombinant DCN3 (method not specified); settings: concentrations up to 10 µM
T3 construct: DCN2 (residues 62–259), DCN3 (residues 86–304), DCN4 (residues 102–292) and DCN5 (residues 47–237); His6-TEV (N, cleaved yes); made in house; host or cells: Rosetta2 cells (E. coli)
T3 sequence (Q8IWE4 86-304): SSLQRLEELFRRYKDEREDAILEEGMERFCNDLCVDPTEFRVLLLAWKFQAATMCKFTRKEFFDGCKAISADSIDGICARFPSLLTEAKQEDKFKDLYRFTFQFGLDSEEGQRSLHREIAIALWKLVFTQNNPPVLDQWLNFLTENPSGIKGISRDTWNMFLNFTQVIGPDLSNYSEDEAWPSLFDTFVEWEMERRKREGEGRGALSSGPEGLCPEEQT

DCN4 = molecular target: T4, DCN4 (Homo sapiens, UniProt Q92564); assay: Biochemical assays, binding of 47 to recombinant DCN4 (method not specified); settings: concentrations up to 10 µM
T4 construct: DCN2 (residues 62–259), DCN3 (residues 86–304), DCN4 (residues 102–292) and DCN5 (residues 47–237); His6-TEV (N, cleaved yes); made in house; host or cells: Rosetta2 cells (E. coli)
T4 sequence (Q92564 102-292): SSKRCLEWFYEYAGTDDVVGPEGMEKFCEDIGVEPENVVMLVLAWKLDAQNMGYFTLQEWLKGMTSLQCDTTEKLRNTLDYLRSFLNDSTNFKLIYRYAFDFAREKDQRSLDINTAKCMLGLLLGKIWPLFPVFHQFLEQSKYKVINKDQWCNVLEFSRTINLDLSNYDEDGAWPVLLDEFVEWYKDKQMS

DCN5 = molecular target: T5, DCN5 (Homo sapiens, UniProt Q9BTE7); assay: Biochemical assays, binding of 47 to recombinant DCN5 (method not specified); settings: concentrations up to 10 µM
T5 construct: DCN2 (residues 62–259), DCN3 (residues 86–304), DCN4 (residues 102–292) and DCN5 (residues 47–237); His6-TEV (N, cleaved yes); made in house; host or cells: Rosetta2 cells (E. coli)
T5 sequence (Q9BTE7 47-237): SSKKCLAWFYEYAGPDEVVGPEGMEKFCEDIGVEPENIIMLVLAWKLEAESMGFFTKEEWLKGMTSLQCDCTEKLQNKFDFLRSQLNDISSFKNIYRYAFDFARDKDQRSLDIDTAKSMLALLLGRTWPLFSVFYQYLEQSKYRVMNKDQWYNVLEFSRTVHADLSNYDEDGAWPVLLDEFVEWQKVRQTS

[3] = system: cellular DCN1 and DCN2 proteins; assay: Biotinylated protein pull-down assay, KYSE70 cell lysates; format: binding
Description: (§6) Complexes formed between the biotinylated DI inhibitor and its targeted proteins were recovered by incubation with Streptavidin-agarose beads (Thermo Scientific Pierce, Waltham, Massachusetts). DCN1 and DCN2 proteins associated with beads were eluted by heating and detected by immunoblotting.

DCN1 = DCN1 (Homo sapiens, UniProt Q96GG9); assay: Biotinylated protein pull-down assay, KYSE140 cell lysates; format: binding; parameters: endogenous in cells; host or cells: KYSE70; KYSE140
Description: as §6
GAPDH was used as a loading control. […]

Chain of DCN1 (Q96GG9 whole entry): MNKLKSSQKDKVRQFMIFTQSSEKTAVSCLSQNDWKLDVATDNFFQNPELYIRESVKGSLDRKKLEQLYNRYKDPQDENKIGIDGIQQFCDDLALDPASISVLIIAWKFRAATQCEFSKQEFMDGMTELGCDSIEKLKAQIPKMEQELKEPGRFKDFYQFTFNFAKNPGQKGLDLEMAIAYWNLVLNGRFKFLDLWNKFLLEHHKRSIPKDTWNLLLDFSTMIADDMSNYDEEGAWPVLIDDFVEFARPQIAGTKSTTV
T2 sequence (Q6PH85 62-259): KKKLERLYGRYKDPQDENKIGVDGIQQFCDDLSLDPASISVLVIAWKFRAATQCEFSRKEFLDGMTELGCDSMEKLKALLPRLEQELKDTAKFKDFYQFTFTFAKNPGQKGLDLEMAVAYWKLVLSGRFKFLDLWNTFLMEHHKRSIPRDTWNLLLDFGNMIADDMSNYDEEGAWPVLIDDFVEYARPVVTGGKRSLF

inhibition of UBC12 neddylation (E1 activity), in words (NEDD8 E1 (APP-BP1/Uba3))	IC50 [1] [nM]	SMILES	EC50 (THLE2) [nM]	EC50 (KYSE70) [nM]	EC50 (KYSE140) [nM]	effect on neddylation of cullin 3, time course (in words) (neddylation of cullin 3)	effect on neddylation of cullin 1, time course (in words) ([2]; THLE2 liver cells, up to 24 h, DI-591 10 µM, MLN4924 0.3 µM)	concentrations that effectively suppress neddylation of all cullins examined ([2]; all cullins examined, panel of six cell lines, 24 h) [nM]	NRF2 protein level (in words) (NRF2)	protein levels of p21, Bim and CDT1 (in words) (p21, Bim, CDT1)	Ki (DCN2) [nM]	binding to recombinant DCN3 (in words) (DCN3)	binding to recombinant DCN4 (in words) (DCN4)	binding to recombinant DCN5 (in words) (DCN5)	pull-down of cellular DCN1 and DCN2 proteins (in words) [3]	pull-down of DCN1 protein (in words) (DCN1)
effectively inhibits	50 to 350	NS(=O)(=O)OC[C@@H]1C[C@@H](n2ccc3c(N[C@H]4CCc5ccccc54)ncnc32)C[C@@H]1O [MLN4924]	53.4	356	65.4	effective	effective	10 to 300	induces accumulation; also recorded: much stronger upregulation	induces accumulation						
		CCC(=O)NC(Cc1nc2ccc(C(C)C)cc2s1)C(=O)NC(CNC(=O)C1CCN(CCOCCOCCOCCNC(=O)CCCCC2SCC3NC(=O)NC32)CC1)C1CCCCC1 (stereo not shown) [compound 47]									3.9	no appreciable binding	no appreciable binding	no appreciable binding	efficiently pulls down	pulls down DCN1 protein
